Test results: patent US12180208B1, “Pyrazolo[1,5-c]pyrido[3,4-e]pyrimidines as CK2 inhibitors” (KING FAISAL UNIVERSITY, priority 2024, dated 2024)

Tests used:
PC3 (prostate) = test: In vitro cytotoxic activity (MTT) assay, PC3; assay type: cell-based; details: Homo sapiens, 96 hours exposure, read-out: Cytotoxicity activity IC50 (50% inhibition of cell proliferation)
Protocol: (§1) Compounds 1-16 were screened for their in vitro cytotoxic activity utilizing a 3-(4,5-dimethyl-thiazol-2-yl)-2,5-diphenyltetrazolium bromide (MTT) assay against selected cancer human cell lines consisting of PC3 (prostate), HCT116 (colon), A375 (melanoma), H1299 (lung), MIAPaCa-2 (pancreas), HL60 (leukemia), MCF7 (breast), MDA-MB-231 (breast) (T. Mosmann, J. Immunol. Meth., 1983, 65, 55-63). The cells were cultured at 37° C. in RMPI1640 medium supplemented with 10% fetal bovine serum, 50 IU/mL penicillin, and 50 μg/mL streptomycin in a 5% CO2 incubator. All cells were sub-cultured 3 times/week by trypsinisation. Viable cells were seeded and allowed to adhere for 12 hours before a test drug was added in 96-well plates at an initial density of 1.0×10^5 cells/mL. Tumor cell lines were separately exposed to various concentrations of the tested compounds followed by incubation at a temperature of 37° C. during 96 hours inside a medium of fresh RMPI 1640. Cells were subsequently incubated at 37° C. using MTT at 0.5 mg/mL during 4 hours. After removal of supernatant, formazan crystals were dissolved in isopropanol and the optical density was measured at 570 nm. CX-4945 was used as a positive control.

HCT116 (colon) = test: In vitro cytotoxic activity (MTT) assay, HCT116; assay type: cell-based; details: Homo sapiens, HCT-116, 96 hours exposure, read-out: Cytotoxicity activity IC50 (50% inhibition of cell proliferation)
Protocol: as §1

A375 (melanoma) = test: In vitro cytotoxic activity (MTT) assay, A375; assay type: cell-based; details: Homo sapiens, A-375, 96 hours exposure, read-out: Cytotoxicity activity IC50 (50% inhibition of cell proliferation)
Protocol: as §1

H1299 (lung) = test: In vitro cytotoxic activity (MTT) assay, H1299; assay type: cell-based; details: Homo sapiens, NCI-H1299, 96 hours exposure, read-out: Cytotoxicity activity IC50 (50% inhibition of cell proliferation)
Protocol: as §1

MIAPaCa-2 (pancreas) = test: In vitro cytotoxic activity (MTT) assay, MIAPaCa-2; assay type: cell-based; details: Homo sapiens, MIA PaCa-2, 96 hours exposure, read-out: Cytotoxicity activity IC50 (50% inhibition of cell proliferation)
Protocol: as §1

HL60 (leukemia) = test: In vitro cytotoxic activity (MTT) assay, HL60; assay type: cell-based; details: Homo sapiens, HL-60, 96 hours exposure, read-out: Cytotoxicity activity IC50 (50% inhibition of cell proliferation)
Protocol: as §1

MCF7 (breast) = test: In vitro cytotoxic activity (MTT) assay, MCF7; assay type: cell-based; details: Homo sapiens, 96 hours exposure, read-out: Cytotoxicity activity IC50 (50% inhibition of cell proliferation)
Protocol: as §1

MDA-MB-231 (breast) = test: In vitro cytotoxic activity (MTT) assay, MDA-MB-231; assay type: cell-based; details: Homo sapiens, 96 hours exposure, read-out: Cytotoxicity activity IC50 (50% inhibition of cell proliferation)
Protocol: as §1

[1] = biological target: T1, recombinant human CK2 (holoenzyme) (Homo sapiens, UniProt P68400); test: CK2 Kinase Assay (33P-ATP, filter plate); assay type: biochemical; details: final ATP concentration 15 μM, 10 min at 30° C.; read-out: protein kinase CK2 IC50
T1 construct: purchased Millipore
T1 sequence (P68400 whole entry): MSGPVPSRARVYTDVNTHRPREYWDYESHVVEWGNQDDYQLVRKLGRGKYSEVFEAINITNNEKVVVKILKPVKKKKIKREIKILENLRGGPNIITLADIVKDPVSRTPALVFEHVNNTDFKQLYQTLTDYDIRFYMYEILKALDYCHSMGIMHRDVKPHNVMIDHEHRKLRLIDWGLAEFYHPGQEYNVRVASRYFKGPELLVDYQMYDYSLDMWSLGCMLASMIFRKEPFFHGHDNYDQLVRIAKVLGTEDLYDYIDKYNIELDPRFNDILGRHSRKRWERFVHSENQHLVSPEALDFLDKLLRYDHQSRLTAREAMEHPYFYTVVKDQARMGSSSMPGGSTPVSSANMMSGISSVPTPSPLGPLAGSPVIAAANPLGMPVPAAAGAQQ
T1 sequence (P67870 whole entry partner): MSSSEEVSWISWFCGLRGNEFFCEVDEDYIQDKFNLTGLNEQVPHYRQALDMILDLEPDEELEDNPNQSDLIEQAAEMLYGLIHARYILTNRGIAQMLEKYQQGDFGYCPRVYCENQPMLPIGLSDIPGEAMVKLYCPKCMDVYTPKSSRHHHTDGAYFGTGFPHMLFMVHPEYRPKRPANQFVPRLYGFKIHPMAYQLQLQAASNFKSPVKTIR
Protocol: CK2 Kinase Assay was conducted using the protocol as described in Pierre F. et al; J. Med. Chem. 2011, 54, 635-654. The tested compounds in aqueous solution were added at a volume of 10 μL to a reaction mixture comprising 10 μL of assay dilution buffer (ADB; 20 mM MOPS, pH 7.2, 25 mM β-glycerol phosphate, 5 mM EGTA, 1 mM sodium orthovanadate, and 1 mM dithiothreitol), 10 μL of substrate peptide (RRRDDDSDDD, dissolved in ADB at a concentration of 1 mM), 10 μL of recombinant human CK2 (RRββ-holoenzyme, 25 ng dissolved in ADB; Millipore). Reactions were initiated by the addition of 10 μL of ATP solution (90% 75 mMMgCl2, 75 μM ATP (final ATP concentration: 15 μM) dissolved in ADB; 10% [γ-33P] ATP (stock 1 mCi/100 μL; 3000 Ci/mmol (Perkin-Elmer) and maintained for 10 min at 30° C. The reactions were quenched with 100 μL of 0.75% phosphoric acid and then transferred to and filtered through a phosphor cellulose filter plate (Millipore). After washing each well five times with 0.75% phosphoric acid, the plate was dried under vacuum for 5 min and, following the addition of 15 μL of scintillation fluid to each well, the residual radioactivity was measured using a Wallac […] counter. The IC50 values were derived from eight concentrations of test inhibitors.

Q: Which IC50 (PC3 (prostate)) does the source give for `O=C(O)c1cc2c3cnccc3nc(Nc3cccc(Cl)c3)n2n1` [Compound 1, 6-((3-chlorophenyl)amino)pyrazolo[1,5-c]pyrido[3,4-e]pyrimidine-9-carboxylic Acid] here?
A: 2.3 µM

Q: And the IC50 (HCT116 (colon))?
A: 3.1 µM

Q: And the IC50 (A375 (melanoma))?
A: 4.2 µM

Q: And the IC50 (H1299 (lung))?
A: 2.5 µM

Q: And the IC50 (MIAPaCa-2 (pancreas))?
A: 1.7 µM

Q: What about the IC50 (HL60 (leukemia)) of the same compound?
A: 5.1 µM

Q: And the IC50 (MCF7 (breast))?
A: 5.6 µM

Q: What about the IC50 (MDA-MB-231 (breast)) of the same compound?
A: 4.9 µM

Q: What about the IC50 [1] of the same compound?
A: 0.055 µM
